From patent US12715849B2, “Herbicidal tetrazole compounds” (SYNGENTA CROP PROTECTION AG, priority 2020, dated 2026)

Tests used:
Assay in all cases: Glasshouse herbicidal test, pre- and post-emergence (Table B1)
Format in all cases: in vivo
[1] = system: Amaranthus palmeri (AMAPA); settings: 130 g/h, evaluated after 13 days; for percentage damage caused to the plant, POST Application AMAPA: post-emergence; for percentage damage caused to the plant, PRE Application AMAPA: pre-emergence
Method: (§1) Seeds of a variety of test species are sown in standard soil in pots (Lolium perenne (LOLPE), Amaranthus retoflexus (AMARE), Amaranthus palmeri (AMAPA), Ablution theophrasti (ABUTH), Setaria faberi (SETFA), Echinochloa crus-galli (ECHCG), Ipomoea hederacea (IPOHE)). After cultivation for one day (pre-emergence) or after 8 days cultivation (post-emergence) under controlled conditions in a glasshouse (at 24/16° C., day/night; 14 hours light; 65% humidity), the plants are sprayed with an aqueous spray solution derived from the formulation of the technical active ingredient in acetone/water (50:50) solution containing 0.5% Tween 20 (polyoxyethelyene sorbitan monolaurate, CAS RN 9005-64-5). Compounds are applied at 130 g/h unless otherwise indicated. The test plants are then grown in a glasshouse under controlled conditions in a glasshouse (at 24/16° C., day/night; 14 hours light; 65% humidity) and watered twice daily. After 13 days for pre and post-emergence, the test is evaluated for the percentage damage caused to the plant. The biological activities are shown in the following table on a five-point scale (5=80-100%; 4=60-79%; 3=40-59%; 2=20-39%; 1=0-19%).

[2] = system: Amaranthus retoflexus (AMARE); settings: 130 g/h, evaluated after 13 days; for percentage damage caused to the plant, POST Application AMARE: post-emergence; for percentage damage caused to the plant, PRE Application AMARE: pre-emergence
Method: as §1

[3] = system: Echinochloa crus-galli (ECHCG); settings: 130 g/h, evaluated after 13 days; for percentage damage caused to the plant, PRE Application ECHCG: pre-emergence; for percentage damage caused to the plant, POST Application ECHCG: post-emergence
Method: as §1

[4] = system: Ipomoea hederacea (IPOHE); settings: 130 g/h, evaluated after 13 days; for percentage damage caused to the plant, POST Application IPOHE: post-emergence; for percentage damage caused to the plant, PRE Application IPOHE: pre-emergence
Method: as §1

[5] = system: Setaria faberi (SETFA); settings: 130 g/h, evaluated after 13 days; for percentage damage caused to the plant, POST Application SETFA: post-emergence; for percentage damage caused to the plant, PRE Application SETFA: pre-emergence
Method: as §1

SMILES	percentage damage caused to the plant, POST Application AMAPA [1]	percentage damage caused to the plant, PRE Application AMAPA [1]	percentage damage caused to the plant, POST Application AMARE [2]	percentage damage caused to the plant, PRE Application AMARE [2]	percentage damage caused to the plant, PRE Application ECHCG [3]	percentage damage caused to the plant, POST Application IPOHE [4]	percentage damage caused to the plant, PRE Application IPOHE [4]	percentage damage caused to the plant, POST Application SETFA [5]	percentage damage caused to the plant, PRE Application SETFA [5]	percentage damage caused to the plant, POST Application ECHCG [3]
CCCS(=O)(=O)Nc1c(OC(F)(F)F)ccc(C(=O)Nc2nnnn2C)c1Cl [Compound 1.072]	5 (5=80-100%)	5 (5=80-100%)	5 (5=80-100%)	5 (5=80-100%)	5 (5=80-100%)	5 (5=80-100%)	5 (5=80-100%)	5 (5=80-100%)	5 (5=80-100%)	–
CC(C)S(=O)(=O)Nc1c(OC(F)(F)F)ccc(C(=O)Nc2nnnn2C)c1Cl [Compound 1.076]	5 (5=80-100%)	5 (5=80-100%)	5 (5=80-100%)	5 (5=80-100%)	5 (5=80-100%)	4 (4=60-79%)	3 (3=40-59%)	5 (5=80-100%)	5 (5=80-100%)	–
COCCS(=O)(=O)Nc1c(OC(F)F)ccc(C(=O)Nc2nnnn2C)c1Cl [Compound 1.014]	5 (5=80-100%)	5 (5=80-100%)	5 (5=80-100%)	3 (3=40-59%)	1 (1=0-19%)	3 (3=40-59%)	1 (1=0-19%)	4 (4=60-79%)	1 (1=0-19%)	4 (4=60-79%)
CC(C)CS(=O)(=O)Nc1c(OC(F)F)ccc(C(=O)Nc2nnnn2C)c1Cl [Compound 1.070]	5 (5=80-100%)	4 (4=60-79%)	5 (5=80-100%)	4 (4=60-79%)	3 (3=40-59%)	4 (4=60-79%)	2 (2=20-39%)	4 (4=60-79%)	3 (3=40-59%)	4 (4=60-79%)
CCN(c1c(OC(F)(F)F)ccc(C(=O)Nc2nnnn2C)c1Cl)S(=O)(=O)CC [Compound 1.078]	5 (5=80-100%)	5 (5=80-100%)	5 (5=80-100%)	5 (5=80-100%)	5 (5=80-100%)	4 (4=60-79%)	4 (4=60-79%)	5 (5=80-100%)	5 (5=80-100%)	–
CCN(c1c(OC(F)(F)F)ccc(C(=O)Nc2nnnn2C)c1Cl)S(C)(=O)=O [Compound 1.079]	5 (5=80-100%)	5 (5=80-100%)	5 (5=80-100%)	5 (5=80-100%)	5 (5=80-100%)	4 (4=60-79%)	4 (4=60-79%)	5 (5=80-100%)	5 (5=80-100%)	–
CCS(=O)(=O)N(C)c1c(OC(F)F)ccc(C(=O)Nc2nnnn2C)c1Cl [Compound 1.087]	5 (5=80-100%)	5 (5=80-100%)	5 (5=80-100%)	5 (5=80-100%)	5 (5=80-100%)	4 (4=60-79%)	5 (5=80-100%)	5 (5=80-100%)	5 (5=80-100%)	5 (5=80-100%)
CN(c1c(OC(F)(F)F)ccc(C(=O)Nc2nnnn2C)c1Cl)S(C)(=O)=O [Compound 1.077]	5 (5=80-100%)	5 (5=80-100%)	5 (5=80-100%)	5 (5=80-100%)	5 (5=80-100%)	4 (4=60-79%)	4 (4=60-79%)	5 (5=80-100%)	5 (5=80-100%)	–
CC(C)CS(=O)(=O)Nc1c(OC(F)(F)F)ccc(C(=O)Nc2nnnn2C)c1Cl [Compound 1.074]	5 (5=80-100%)	5 (5=80-100%)	5 (5=80-100%)	5 (5=80-100%)	4 (4=60-79%)	5 (5=80-100%)	3 (3=40-59%)	5 (5=80-100%)	3 (3=40-59%)	5 (5=80-100%)
COCCS(=O)(=O)Nc1c(OC(F)(F)F)ccc(C(=O)Nc2nnnn2C)c1Cl [Compound 1.054]	5 (5=80-100%)	5 (5=80-100%)	5 (5=80-100%)	5 (5=80-100%)	1 (1=0-19%)	4 (4=60-79%)	3 (3=40-59%)	4 (4=60-79%)	1 (1=0-19%)	5 (5=80-100%)
Cn1nnnc1NC(=O)c1ccc(OC(F)(F)F)c(NS(=O)(=O)CC2CC2)c1Cl [Compound 1.056]	5 (5=80-100%)	5 (5=80-100%)	5 (5=80-100%)	5 (5=80-100%)	5 (5=80-100%)	5 (5=80-100%)	5 (5=80-100%)	5 (5=80-100%)	5 (5=80-100%)	5 (5=80-100%)
CCS(=O)(=O)Nc1c(OC(F)(F)C(F)F)ccc(C(=O)Nc2nnnn2C)c1Cl [Compound 1.086]	5 (5=80-100%)	5 (5=80-100%)	5 (5=80-100%)	5 (5=80-100%)	5 (5=80-100%)	5 (5=80-100%)	2 (2=20-39%)	5 (5=80-100%)	4 (4=60-79%)	5 (5=80-100%)
CCCS(=O)(=O)Nc1c(OC(F)F)ccc(C(=O)Nc2nnnn2C)c1Cl [Compound 1.069]	5 (5=80-100%)	5 (5=80-100%)	5 (5=80-100%)	5 (5=80-100%)	5 (5=80-100%)	5 (5=80-100%)	4 (4=60-79%)	5 (5=80-100%)	4 (4=60-79%)	5 (5=80-100%)
